Reference: publication PMC10882719 (Frontiers in Neuroscience, 2024)
Where two headings read alike, the source gives them in different places.

What was measured:
Type in all cases: cell-based
168 GPCRs [1] = biological target: T1, 168 GPCRs (Homo sapiens, UniProt P21731); settings: TBXA2R
T1 construct: host or cells: PathHunter cell lines
T1 sequence (P21731 1-343): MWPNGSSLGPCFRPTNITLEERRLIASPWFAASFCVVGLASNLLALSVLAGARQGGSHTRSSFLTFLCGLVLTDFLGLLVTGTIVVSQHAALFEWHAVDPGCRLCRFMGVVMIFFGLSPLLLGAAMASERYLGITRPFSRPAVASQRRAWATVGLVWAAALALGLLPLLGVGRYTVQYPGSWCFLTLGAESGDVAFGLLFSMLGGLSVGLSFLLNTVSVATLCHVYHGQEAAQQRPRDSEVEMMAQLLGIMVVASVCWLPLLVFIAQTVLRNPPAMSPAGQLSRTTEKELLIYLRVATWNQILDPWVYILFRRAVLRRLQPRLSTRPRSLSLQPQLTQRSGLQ

168 GPCRs [2] = biological target: T2, 168 GPCRs (Homo sapiens, UniProt P28566); settings: HTR1E
T2 construct: host or cells: PathHunter cell lines

168 GPCRs [3] = biological target: T3, 168 GPCRs (Homo sapiens, UniProt P49683); settings: PRLHR
T3 construct: host or cells: PathHunter cell lines
T3 sequence (P49683 1-370): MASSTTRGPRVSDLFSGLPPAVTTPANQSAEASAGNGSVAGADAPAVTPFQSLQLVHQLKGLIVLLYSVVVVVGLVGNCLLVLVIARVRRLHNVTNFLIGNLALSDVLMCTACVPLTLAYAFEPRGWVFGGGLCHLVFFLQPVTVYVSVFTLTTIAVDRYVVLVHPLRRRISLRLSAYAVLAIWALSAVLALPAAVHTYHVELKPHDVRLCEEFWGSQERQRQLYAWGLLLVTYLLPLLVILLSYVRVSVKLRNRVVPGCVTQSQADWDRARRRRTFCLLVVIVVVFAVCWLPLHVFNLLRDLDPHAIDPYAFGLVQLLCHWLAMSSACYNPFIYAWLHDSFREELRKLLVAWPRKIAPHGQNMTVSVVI

168 GPCRs [4] = biological target: T4, 168 GPCRs (Homo sapiens, UniProt P51677)
T4 construct: host or cells: PathHunter cell lines
T4 sequence (P51677 1-355): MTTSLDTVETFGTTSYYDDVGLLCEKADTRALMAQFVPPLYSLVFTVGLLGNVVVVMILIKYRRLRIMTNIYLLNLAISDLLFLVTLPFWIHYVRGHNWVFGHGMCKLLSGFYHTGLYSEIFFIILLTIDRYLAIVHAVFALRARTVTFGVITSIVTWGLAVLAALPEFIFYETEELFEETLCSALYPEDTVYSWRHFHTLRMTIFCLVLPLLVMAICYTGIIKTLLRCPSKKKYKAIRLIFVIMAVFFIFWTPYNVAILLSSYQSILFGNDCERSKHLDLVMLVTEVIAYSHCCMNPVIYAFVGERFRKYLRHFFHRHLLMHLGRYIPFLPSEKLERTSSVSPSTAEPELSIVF

168 GPCRs [5] = biological target: T5, 168 GPCRs (Homo sapiens, UniProt Q15077); settings: P2RY6
T5 construct: host or cells: PathHunter cell lines

168 GPCRs [6] = biological target: T6, 168 GPCRs (Homo sapiens, UniProt Q96LB1)
T6 construct: host or cells: PathHunter cell lines
T6 sequence (Q96LB1 1-330): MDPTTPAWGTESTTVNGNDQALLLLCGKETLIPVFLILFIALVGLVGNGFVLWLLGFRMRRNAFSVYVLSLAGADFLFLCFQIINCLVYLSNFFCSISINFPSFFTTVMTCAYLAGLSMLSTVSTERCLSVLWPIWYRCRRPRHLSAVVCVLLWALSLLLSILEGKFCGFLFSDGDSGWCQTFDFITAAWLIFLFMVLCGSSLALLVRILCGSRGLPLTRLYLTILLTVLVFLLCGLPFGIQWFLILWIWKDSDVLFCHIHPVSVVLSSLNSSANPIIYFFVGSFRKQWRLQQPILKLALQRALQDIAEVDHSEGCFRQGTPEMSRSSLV

168 GPCRs [7] = biological target: T7, 168 GPCRs (Homo sapiens, UniProt Q99705)
T7 construct: host or cells: PathHunter cell lines
T7 sequence (Q99705 whole entry): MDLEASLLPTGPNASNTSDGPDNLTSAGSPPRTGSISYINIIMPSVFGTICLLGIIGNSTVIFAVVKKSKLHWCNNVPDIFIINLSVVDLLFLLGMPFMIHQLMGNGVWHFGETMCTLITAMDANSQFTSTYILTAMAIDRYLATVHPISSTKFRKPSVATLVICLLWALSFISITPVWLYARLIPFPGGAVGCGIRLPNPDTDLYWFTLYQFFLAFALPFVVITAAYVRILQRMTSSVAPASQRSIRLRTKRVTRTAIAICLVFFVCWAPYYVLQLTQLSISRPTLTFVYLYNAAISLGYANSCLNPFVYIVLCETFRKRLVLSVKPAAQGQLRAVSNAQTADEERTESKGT

T2 sequence (P28566 whole entry): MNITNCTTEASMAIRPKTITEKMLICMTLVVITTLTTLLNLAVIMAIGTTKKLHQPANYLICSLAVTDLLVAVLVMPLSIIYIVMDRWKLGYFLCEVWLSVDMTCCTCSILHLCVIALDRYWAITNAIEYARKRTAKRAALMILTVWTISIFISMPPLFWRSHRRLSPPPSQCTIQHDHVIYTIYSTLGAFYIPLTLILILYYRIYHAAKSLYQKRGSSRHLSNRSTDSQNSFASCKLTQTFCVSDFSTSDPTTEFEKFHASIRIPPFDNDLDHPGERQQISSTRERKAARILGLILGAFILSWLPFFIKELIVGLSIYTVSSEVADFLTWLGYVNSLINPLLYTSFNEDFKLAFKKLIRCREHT
T5 sequence (Q15077 whole entry): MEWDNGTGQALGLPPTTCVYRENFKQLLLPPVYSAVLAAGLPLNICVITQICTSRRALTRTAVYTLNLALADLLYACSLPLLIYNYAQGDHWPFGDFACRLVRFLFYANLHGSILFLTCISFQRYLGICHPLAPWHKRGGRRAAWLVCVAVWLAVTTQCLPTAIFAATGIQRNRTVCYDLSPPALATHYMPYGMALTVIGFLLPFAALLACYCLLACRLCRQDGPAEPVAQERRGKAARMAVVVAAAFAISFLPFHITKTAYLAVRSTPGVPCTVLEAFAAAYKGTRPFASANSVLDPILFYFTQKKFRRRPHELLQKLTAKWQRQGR

Structure (SMILES)	% Agonist Activity (168 GPCRs [1]; Conc 1 uM)	% Antagonist Activity (168 GPCRs [1]; Conc 1 uM)	% Agonist Activity (168 GPCRs [1]; Conc 10 uM)	% Antagonist Activity (168 GPCRs [1]; Conc 10 uM)	% Agonist Activity (168 GPCRs [2]; 1 uM)	% Antagonist Activity (168 GPCRs [2]; 1 uM)	% Agonist Activity (168 GPCRs [2]; 10 uM)	% Antagonist Activity (168 GPCRs [2]; 10 uM)	% Agonist Activity (168 GPCRs [3]; Conc 1 uM)	% Antagonist Activity (168 GPCRs [3]; Conc 1 uM)	% Agonist Activity (168 GPCRs [3]; Conc 10 uM)	% Antagonist Activity (168 GPCRs [3]; Conc 10 uM)	% Agonist Activity (168 GPCRs [4]; CCR3, 1 uM)	% Antagonist Activity (168 GPCRs [4]; CCR3, 1 uM)	% Agonist Activity (168 GPCRs [4]; CCR3, 10 uM)	% Antagonist Activity (168 GPCRs [4]; CCR3, 10 uM)	% Agonist Activity (168 GPCRs [5]; Conc 1 uM)	% Antagonist Activity (168 GPCRs [5]; Conc 1 uM)	% Agonist Activity (168 GPCRs [5]; Conc 10 uM)	% Antagonist Activity (168 GPCRs [5]; Conc 10 uM)	other results
CNC(C)C(=O)c1ccc2c(c1)OCO2 (centres unmarked) [methylone]	-1.1%	-5.5%	-2.9%	-19.7%	-3.5%	7.6%	0.2%	13.2%	-2.2%	17.8%	-0.2%	15.8%	-6.7%	-11.8%	-7.6%	-4%	4.5%	6.5%	2.4%	2.6%	% Agonist Activity (168 GPCRs [6]; MRGPRX2, 1 uM): 1.4%; % Antagonist Activity (168 GPCRs [6]; MRGPRX2, 1 uM): 16.2%; % Agonist Activity (168 GPCRs [6]; MRGPRX2, 10 uM): 0.7%; % Antagonist Activity (168 GPCRs [6]; MRGPRX2, 10 uM): 8.9%; % Agonist Activity (168 GPCRs [7]; MCHR1, 1 uM): 3.9%; % Antagonist Activity (168 GPCRs [7]; MCHR1, 1 uM): -12.2%; % Agonist Activity (168 GPCRs [7]; MCHR1, 10 uM): 3.1%; % Antagonist Activity (168 GPCRs [7]; MCHR1, 10 uM): -18.3%
CNC(C)Cc1ccc2c(c1)OCO2 (centres unmarked) [MDMA, 3,4-Methylenedioxy methamphetamine, reference compound]	2.8%	9.4%	1.6%	14.2%	1.9%	18%	1.1%	12.7%	1.5%	6%	-0.3%	10.8%	-1.5%	1.5%	-1.3%	9.6%	4.9%	2.5%	4.6%	1.2%	% Agonist Activity (168 GPCRs [6]; MRGPRX2, 1 uM): -0.8%; % Antagonist Activity (168 GPCRs [6]; MRGPRX2, 1 uM): -6%; % Agonist Activity (168 GPCRs [6]; MRGPRX2, 10 uM): -0.8%; % Antagonist Activity (168 GPCRs [6]; MRGPRX2, 10 uM): 1.9%; % Agonist Activity (168 GPCRs [7]; MCHR1, 1 uM): -4%; % Antagonist Activity (168 GPCRs [7]; MCHR1, 1 uM): 5.3%; % Agonist Activity (168 GPCRs [7]; MCHR1, 10 uM): -4.4%; % Antagonist Activity (168 GPCRs [7]; MCHR1, 10 uM): 2.1%
